Data taken from US20240246943A1, “MULTIFACETED APPROACH TO NOVEL INTERLEUKIN-6 INHIBITORS” (UNIVERSITY OF FLORIDA RESEARCH FOUNDATION, INCORPORATED, priority 2021, published 2024).
Read-outs that look alike come from different tables or passages of the source. Marks after values point to notes of the source that are not given here.

What was measured:
[1] = tested on: MDA-MB-231 Bone Metastatic breast cancer cells; assay: MTT cell viability assay, MDA-MB-231 Bone Metastatic; type: cell-based; settings: Homo sapiens, 72 hours
Protocol: (§1) Cell viability of MDA-MB-231 breast cancer cells was evaluated by using the MTT assay in triple replicates in one experiment and repeated for three times (FIG. 3). […] The cells were incubated at 37° C. for a period of 24 hours. Escalating concentrations of IL-6/gp130 inhibitors (e.g., compounds of Formula (A), (B), (C), (D), (E), or (F) including LLM-418, bazedoxifene, LS-28-3, and COMP-D (LS-101-D)) were added in triplicate to the plates in the presence of 10% FBS. After incubation for 72 hours (unless otherwise noted), a stock solution of MTT (0.5 mg/ml) was then added to each well containing the treated cells, followed by incubation at 37° C. for 3 h. After removal of medium, the MTT dye was dissolved with spectrophotometric grade DMSO and the absorbance was read at 570 nm. The IC50 value is determined by interpolation based on the absorbance value halfway between positive and negative controls.

[2] = tested on: LIF induced p-STAT3; assay: Selectivity study, western blot, T47D cells, LIF stimulation; type: cell-based; settings: T47D breast cancer cells, compound, then cytokine
Protocol: (§2) Cells were harvested and lysed in cold radioimmunoprecipitation assay (RIPA) lysis buffer containing proteasome inhibitor cocktail and phosphatase inhibitor cocktail. The protein concentrations were determined using the BCA Protein Assay kit. After adding the loading buffer and boiling at 95° C. for 10 minutes, equivalent amounts of proteins were loaded on and separated by SDS-PAGE, and then were transferred to PVDF membranes. Membranes were probed with primary antibodies (1:1000) against gp130 and GAPDH. Membranes were analyzed using Enhanced Chemiluminescence Plus reagents and either scanned with the Storm Scanner (Amersham Pharmacia Biotech, Inc., Piscataway, NJ) or imaged with ChemiDoc MP imaging system (Bio-Rad, Hercules, CA).
(§3) Inhibition of downstream STAT3 phosphorylation was performed. T47D breast cancer cells, which lack endogenous IL-6, were treated with LLM418-MCBu for 2 hours. Then, cytokine was administered for 30 minutes (IL-6, INF, LIF, or OSM). Western blot conducted afterwards to assess dose-dependent inhibition of IL-6 signaling (or lack thereof) (FIG. 5).

[3] = tested on: IL-6 induced p-STAT3; assay: Selectivity study, western blot, T47D cells, IL-6 stimulation; type: cell-based; settings: T47D breast cancer cells, compound 2 hours, then cytokine 30 minutes
Protocol: as §2, §3

[4] = tested on: SUM159 gp130ko breast cancer cells; assay: MTT cell viability assay, SUM159 gp130ko; type: cell-based; settings: SUM159, Table 1 batch studies, 72 hours, read-out: IC50 Values in Breast Cancer Cell Lines, SUM159 gp130ko
Protocol: as §1

[5] = tested on: SUM159 breast cancer cells; assay: MTT cell viability assay, SUM159; type: cell-based; settings: 72 hours, Inactive = no measurable activity at 20 μM
Protocol: Cell viability of MDA-MB-231 breast cancer cells was evaluated by using the MTT assay in triple replicates in one experiment and repeated for three times (FIG. 3). MDA-MB-231 SUM159, SUM159 […], MDA-MB-231 breast cancer cells or SUM149 or HCC1937 BRCA mutant breast cancer cells were seeded in 96-well plates at a density of 3,000 cells per well. The cells were incubated at 37° C. for a period of 24 hours. Escalating concentrations of IL-6/gp130 inhibitors (e.g., compounds of Formula (A), (B), (C), (D), (E), or (F) including LLM-418, bazedoxifene, LS-28-3, and COMP-D (LS-101-D)) were added in triplicate to the plates in the presence of 10% FBS. After incubation for 72 hours (unless otherwise noted), a stock solution of MTT (0.5 mg/ml) was then added to each well containing the treated cells, followed by incubation at 37° C. for 3 h. After removal of medium, the MTT dye was dissolved with spectrophotometric grade DMSO and the absorbance was read at 570 nm. The IC50 value is determined by interpolation based on the absorbance value halfway between positive and negative controls.

[6] = tested on: induced p-STAT1; assay: Selectivity study, western blot, T47D cells, IFN stimulation; type: cell-based; settings: T47D breast cancer cells, compound, then cytokine
Protocol: as §2, §3

[7] = tested on: MDA-MB-231 breast cancer cells; assay: MTT cell viability assay, MDA-MB-231; type: cell-based; settings: MTT; for IC50: Homo sapiens, MDA-MB-231, 72 hours, Inactive = no measurable activity at 20 μM
Protocol: as §1

[8] = tested on: pSTAT3 in T47D cell line; assay: pSTAT3 inhibition in T47D cell line (FIG. 8); type: cell-based; settings: compound, then cytokine
Protocol: (§4) FIG. 8 depicts TNBC, BRCA-mutant, and T47D cells stimulated with LLM418-MCBU, then cytokine.
as §2

[9] = tested on: pSTAT3 in BRCA-mutant cell line; assay: pSTAT3 inhibition in BRCA-mutant cell line (FIG. 8); type: cell-based; settings: compound, then cytokine
Protocol: as §4, §2

[10] = tested on: pSTAT3 in TNBC cell line; assay: pSTAT3 inhibition in TNBC cell line (FIG. 8); type: cell-based; settings: compound, then cytokine
Protocol: as §4, §2

[11] = tested on: HCC1937 BRCA-mutant TNBC cells; assay: Cell viability, combination with PARP inhibitor talazoparib (FIG. 9); type: cell-based; settings: LLM418-MCBU in combination with PARP inhibitor talazoparib
Source text: FIG. 9 depicts cell viability of HCC1937 BRCA-mutant TNBC cells treated with LLM418-MCBU and PARP inhibitor talazoparib.

[12] = target: T1, gp130 (Homo sapiens, UniProt P40189); assay: DARTS assay in MDA-MB-231 breast cancer cell lysates; type: binding; settings: 1:2000 pronase:protein, proteolysis 20 minutes; FIG. 1
T1 construct: endogenous in cells; host or cells: MDA-MB-231 breast cancer cells (RIPA lysate)
T1 sequence (P40189 23-918): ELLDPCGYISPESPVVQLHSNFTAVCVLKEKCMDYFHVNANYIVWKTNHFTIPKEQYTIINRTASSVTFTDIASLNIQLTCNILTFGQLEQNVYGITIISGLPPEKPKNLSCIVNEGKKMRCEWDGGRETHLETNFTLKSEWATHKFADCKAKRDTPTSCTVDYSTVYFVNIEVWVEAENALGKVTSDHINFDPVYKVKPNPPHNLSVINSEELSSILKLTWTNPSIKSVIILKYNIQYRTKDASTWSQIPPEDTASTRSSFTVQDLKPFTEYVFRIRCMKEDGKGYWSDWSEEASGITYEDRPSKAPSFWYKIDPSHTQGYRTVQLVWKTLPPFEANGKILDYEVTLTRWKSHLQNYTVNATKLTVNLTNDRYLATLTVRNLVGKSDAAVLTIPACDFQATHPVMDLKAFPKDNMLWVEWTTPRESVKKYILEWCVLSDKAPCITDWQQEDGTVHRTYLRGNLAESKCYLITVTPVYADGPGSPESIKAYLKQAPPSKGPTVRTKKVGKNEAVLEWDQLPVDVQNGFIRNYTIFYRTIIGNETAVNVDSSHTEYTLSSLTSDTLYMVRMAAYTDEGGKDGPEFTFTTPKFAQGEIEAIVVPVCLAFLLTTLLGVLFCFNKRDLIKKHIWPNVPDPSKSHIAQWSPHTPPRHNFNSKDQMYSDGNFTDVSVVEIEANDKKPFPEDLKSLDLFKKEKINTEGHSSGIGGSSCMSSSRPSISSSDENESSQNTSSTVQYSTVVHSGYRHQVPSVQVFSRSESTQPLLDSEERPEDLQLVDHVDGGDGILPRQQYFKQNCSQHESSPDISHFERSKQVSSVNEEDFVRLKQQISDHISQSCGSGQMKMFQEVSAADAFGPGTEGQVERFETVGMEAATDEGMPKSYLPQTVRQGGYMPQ
Protocol: as §2
(§5) MDA-MB-231 breast cancer cells or MIAPaCa2 pancreatic cancer cells were lysed in cold radioimmunoprecipitation assay (RIPA) lysis buffer containing proteasome inhibitor cocktail and phosphatase inhibitor cocktail. Then lysates were incubated with escalating concentrations (10-1000 μM) of LS-28-3 or bazedoxifene at room temperature for 1 h. Proteolysis was followed by adding protease pronase solution at a ratio of 1 mg of pronase to 1000 mg (or 2000 mg) of lysate protein for 20 min at room temperature. […] The resulted protein samples were separated by 8% SDS-PAGE gel and analyzed by western blotting. […]

[13] = target: T1, gp130; assay: DARTS assay in MIAPaCa2 pancreatic cancer cell lysates; type: binding; settings: 1:2000 pronase:protein, proteolysis 20 minutes; FIG. 2
Protocol: as §2, §5

[14] = MDA-MB-231, Table 1 batch studies, read-out: IC50 Values in Breast Cancer Cell Lines, MDA-MB-231 Bone Metastatic
[15] = MDA-MB-231, Table 3 batch studies (independent from Table 1), read-out: MDA-MB-231 Bone Metastatic IC50
[16] = SUM159, Table 1 batch studies, read-out: IC50 Values in Breast Cancer Cell Lines, SUM159
[17] = SUM159, Table 3 batch studies (independent from Table 1), read-out: SUM159 IC50
[18] = Table 1 batch studies, read-out: IC50 Values in Breast Cancer Cell Lines, MDA-MB-231
[19] = Table 3 batch studies (independent from Table 1), read-out: MDA-MB-231 IC50

Row | IC50 [1, 14] | IC50 [1, 15] | IC50 [4] | IC50 [5, 16] | IC50 [5, 17] | IC50 [7, 18] | IC50 [7, 19] | Compound | Inhibition of IL-6 induced p-STAT3 [3] | Inhibition of IFN-7 induced p-STAT1 [6] | also measured
1 | 11.8 µM | 21.1 µM | 16.1 µM | 5.9 µM | 15.1 µM | 49.7 µM | 30.1 µM | O=C(Nc1ccccc1-c1ccn(C2CCC2)n1)c1ccc(OCCN2CCCCC2)cc1 [LLM418-CBU, N-(2-(1-cyclobutyl-1H-pyrazol-3-yl)phenyl)-4-(2-(piperidin-1-yl)ethoxy)benzamide] | inhibits IL-6 induced p-STAT3 | also inhibits IFN-7 induced p-STAT1 | Inhibition of LIF induced p-STAT3 [2]: also inhibits
2 | 7.3 µM | 7.3 µM | 13.9 µM | 10.5 µM | 10.5 µM | 18.5 µM | 18.5 µM | O=C(Nc1ccccc1-c1ccn(CC2CCC2)n1)c1ccc(OCCN2CCCCC2)cc1 [LLM418-MCBu, N-(2-(1-(cyclobutylmethyl)-1H-pyrazol-3-yl)phenyl)-4-(2-(piperidin-1-yl)ethoxy)benzamide] | inhibited IL-6 selectively in a dose-dependent manner | – | Inhibition of IL-6 induced p-STAT3 ([3]; listed as LLM418-MCBU): selectively inhibits IL-6 induced p-STAT3; Inhibition of pSTAT3, T47D cell line [8]: inhibits pSTAT3; Inhibition of pSTAT3, BRCA-mutant cell line [9]: inhibits pSTAT3; Inhibition of pSTAT3, TNBC cell line [10]: inhibits pSTAT3; CI (synergy in inhibiting cell viability) [11]: < 1.0
3 | – | 29.7 µM | 12.1 µM | 9.1 µM | 9.1 µM | 19 µM | 19 µM | CC(C)n1ccc(-c2ccccc2NC(=O)c2ccc(OCCN3CCCCC3)cc2)n1 [LLM418-iPR, N-(2-(1-isopropyl-1H-pyrazol-3-yl)phenyl)-4-(2-(piperidin-1-yl)ethoxy)benzamide] | inhibit both IL-6 induced p-STAT3 and IFN-7 induced p-STAT1 | inhibit both IL-6 induced p-STAT3 and IFN-7 induced p-STAT1 | –
4 | – | – | – | – | – | – | – | CC(C)[C@H]1COC(=O)N1c1ccc(C(=O)Nc2cccc(-c3cc[nH]n3)c2)cc1 [LS-28-3, (S)—N-(3-(1H-pyrazol-3-yl)phenyl)-4-(4-isopropyl-2-oxooxazolidin-3-yl)benzamide] | – | – | Binding to gp130 (protection from pronase proteolysis), MDA-MB-231 lysates [12]: showed direct binding to gp130; IC50 Values in Breast Cancer Cell Lines, SUM159 ([5]; Table 1 batch studies): Inactive; SUM159 IC50 ([5]; Table 3 batch studies (independent from Table 1)): Inactive; Binding to gp130 (protection from pronase proteolysis), MIAPaCA2 lysates [13]: showed direct binding to gp130; Percent cells remaining after treatment with 10 μM compound, MDA-MB-231 ([7]; Table 1 batch studies): 88%***; Percent cells remaining after treatment with 10 μM compound, MDA-MB-231 ([7]; Table 3 batch studies): 88%***
